In patent US9296725B2, “Heterocyclyl pyrimidine analogues as TYK2 inhibitors” (Cellzome Limited, priority 2012, dated 2016):
Like-named read-outs stand apart in the source and are kept apart here.

Legend:
JAK2 = target: T1, JAK2 (Homo sapiens, UniProt O60674); assay: Kinobeads assay, JAK2 (competition binding in mixed Molt4/Ramos cell lysate, dot blot detection); details: read-out: JAK2 Band (Kinobeads assay potency, IC50)
T1 construct: endogenous in cells; host or cells: Molt4 (ATCC CRL-1582) and Ramos (ATCC CRL-1596), mixed lysate 1:2
T1 sequence (O60674 whole entry): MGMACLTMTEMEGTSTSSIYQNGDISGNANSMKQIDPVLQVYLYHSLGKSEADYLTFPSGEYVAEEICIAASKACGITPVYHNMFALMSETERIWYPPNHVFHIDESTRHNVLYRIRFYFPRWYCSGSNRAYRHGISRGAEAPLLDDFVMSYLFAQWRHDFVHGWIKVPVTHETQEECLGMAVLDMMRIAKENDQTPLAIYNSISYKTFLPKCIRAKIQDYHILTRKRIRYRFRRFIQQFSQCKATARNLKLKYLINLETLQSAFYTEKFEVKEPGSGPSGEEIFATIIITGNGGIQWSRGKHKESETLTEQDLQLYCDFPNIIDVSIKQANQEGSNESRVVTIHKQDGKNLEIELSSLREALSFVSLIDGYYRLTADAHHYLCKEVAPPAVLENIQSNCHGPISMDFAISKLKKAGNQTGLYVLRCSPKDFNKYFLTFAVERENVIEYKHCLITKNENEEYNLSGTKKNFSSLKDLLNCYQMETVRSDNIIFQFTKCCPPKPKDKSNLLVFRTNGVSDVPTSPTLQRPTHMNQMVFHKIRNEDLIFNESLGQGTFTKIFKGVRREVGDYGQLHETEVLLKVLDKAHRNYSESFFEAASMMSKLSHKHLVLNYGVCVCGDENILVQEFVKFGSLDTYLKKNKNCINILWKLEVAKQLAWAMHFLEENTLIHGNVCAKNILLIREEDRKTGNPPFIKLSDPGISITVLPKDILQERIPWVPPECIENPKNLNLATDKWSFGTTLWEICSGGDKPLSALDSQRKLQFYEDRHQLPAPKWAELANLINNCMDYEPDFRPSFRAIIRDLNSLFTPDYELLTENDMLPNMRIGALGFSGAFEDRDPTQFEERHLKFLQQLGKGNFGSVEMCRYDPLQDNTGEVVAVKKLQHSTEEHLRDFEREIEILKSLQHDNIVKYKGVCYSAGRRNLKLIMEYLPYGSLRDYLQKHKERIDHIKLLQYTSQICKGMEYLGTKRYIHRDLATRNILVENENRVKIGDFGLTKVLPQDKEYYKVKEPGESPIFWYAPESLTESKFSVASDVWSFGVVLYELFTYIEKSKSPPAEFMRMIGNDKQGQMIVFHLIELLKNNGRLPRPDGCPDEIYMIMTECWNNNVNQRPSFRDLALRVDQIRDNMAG
Procedure, shortened: (§1)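 JAK2 and TYK2 retained on Kinobeads (immobilized aminopyrido-pyrimidine ligand) from 1:2 Molt4:Ramos lysate (10 mg/mL) were quantified by antibody dot blot (Odyssey infrared) after 3 h cold incubation with compound. Nine-step 1:3 dilution series; IC50 calculated from curves.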

TYK2 = target: T2, TYK2 (Homo sapiens, UniProt P29597); assay: Kinobeads assay, TYK2 (competition binding in mixed Molt4/Ramos cell lysate, dot blot detection)
T2 construct: endogenous in cells; host or cells: Molt4 (ATCC CRL-1582) and Ramos (ATCC CRL-1596), mixed lysate 1:2
T2 sequence (P29597 whole entry): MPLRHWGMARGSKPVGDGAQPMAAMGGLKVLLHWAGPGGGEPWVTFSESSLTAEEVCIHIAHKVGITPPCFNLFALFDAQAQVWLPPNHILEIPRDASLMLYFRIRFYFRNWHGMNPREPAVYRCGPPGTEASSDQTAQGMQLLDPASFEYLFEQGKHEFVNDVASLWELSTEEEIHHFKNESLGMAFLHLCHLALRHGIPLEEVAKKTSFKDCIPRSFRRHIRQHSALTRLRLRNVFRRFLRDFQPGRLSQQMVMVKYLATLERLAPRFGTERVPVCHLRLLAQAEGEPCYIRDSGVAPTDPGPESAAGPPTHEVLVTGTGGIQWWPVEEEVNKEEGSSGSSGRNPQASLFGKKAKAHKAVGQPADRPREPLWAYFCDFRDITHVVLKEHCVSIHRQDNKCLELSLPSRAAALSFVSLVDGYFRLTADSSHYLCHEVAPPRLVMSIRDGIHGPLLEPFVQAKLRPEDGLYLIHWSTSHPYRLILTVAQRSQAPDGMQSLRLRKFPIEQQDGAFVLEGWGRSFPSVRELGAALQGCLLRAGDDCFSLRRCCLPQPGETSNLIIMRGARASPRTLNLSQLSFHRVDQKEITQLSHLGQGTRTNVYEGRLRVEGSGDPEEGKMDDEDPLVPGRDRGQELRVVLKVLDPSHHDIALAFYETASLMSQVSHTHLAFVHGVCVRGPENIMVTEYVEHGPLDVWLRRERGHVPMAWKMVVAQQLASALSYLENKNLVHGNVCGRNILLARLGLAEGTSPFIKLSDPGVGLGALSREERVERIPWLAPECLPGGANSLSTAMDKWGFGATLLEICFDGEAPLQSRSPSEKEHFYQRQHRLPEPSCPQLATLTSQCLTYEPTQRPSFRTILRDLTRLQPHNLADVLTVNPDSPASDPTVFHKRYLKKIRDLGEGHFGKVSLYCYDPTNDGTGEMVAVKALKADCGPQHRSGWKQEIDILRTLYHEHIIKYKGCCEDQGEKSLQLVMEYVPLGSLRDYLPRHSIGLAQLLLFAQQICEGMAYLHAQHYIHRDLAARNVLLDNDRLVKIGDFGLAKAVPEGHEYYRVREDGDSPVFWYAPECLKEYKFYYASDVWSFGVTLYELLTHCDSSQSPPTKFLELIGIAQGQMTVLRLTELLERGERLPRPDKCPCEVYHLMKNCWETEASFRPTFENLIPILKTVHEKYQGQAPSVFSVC
Procedure, shortened: as §1

[1] = Kinobeads assay, Molt4/Ramos lysate, read-out: TYK2 Band (Kinobeads assay potency, IC50)

SMILES | IC50 (JAK2) | IC50 (TYK2; [1]) | IC50 (TYK2; read-out: TYK2 IC50)
COc1ccc(F)c(CNc2nc(Nc3cnn(CC(=O)O)c3)ncc2F)c1F [Example I-426] | > 10 µM | 0.01 to 0.1 µM | –
CS(=O)(=O)c1cccc(CNc2nc(Nc3cnn(CC(=O)NCCO)c3)ncc2Cl)c1 [Example I-441] | 1 to 10 µM | 0.1 to 1 µM | –
Cn1cc(Nc2ncc(F)c(NCc3cccc(F)c3F)n2)cn1 [Example I-177] | 1 to 10 µM | 0.1 to 1 µM | –
CCOC(=O)Cn1cc(Nc2ncc(F)c(NCc3c(F)ccc(OC)c3F)n2)cn1 [Example I-53] | 1 to 10 µM | 0.01 to 0.1 µM | –
COc1ccccc1CNc1nc(Nc2cnn(C)c2)ncc1Cl [Example I-228] | 1 to 10 µM | 0.1 to 1 µM | –
Cn1cc(Nc2nccc(NCc3c(F)cc(F)cc3F)n2)cn1 [Example I-310] | > 10 µM | 0.1 to 1 µM | –
O=C(Cn1cc(Nc2ncc(F)c(NCc3c(F)cc(F)cc3F)n2)cn1)NC1CC1 [Example I-4, N-cyclopropyl-2-(4-((5-fluoro-4-((2,4,6-trifluorobenzyl)amino)pyrimidin-2-yl)amino)-1H-pyrazol-1-yl)acetamide] | 1 to 10 µM | 0.01 to 0.1 µM | –
C[C@@H]1COCCN1C(=O)Cn1cc(Nc2ncc(F)c(NCc3c(F)cc(F)cc3F)n2)cn1 [Example I-40] | 1 to 10 µM | 0.01 to 0.1 µM | –
CS(=O)(=O)NCc1cccc(CNc2nc(Nc3cnn(CC(=O)N4CCC[C@H]4C#N)c3)ncc2Cl)c1 [Example I-400] | 1 to 10 µM | 0.1 to 1 µM | –
CS(=O)(=O)c1ccc(F)c(CNc2nc(Nc3cn[nH]c3)ncc2F)c1 [Example I-114] | 1 to 10 µM | 0.01 to 0.1 µM | –
CC(C)NC(=O)Cn1cc(Nc2nccc(NCc3c(F)cccc3F)n2)cn1 [Example I-62] | > 10 µM | 0.01 to 0.1 µM | < 0.1 µM
Cc1cnc(Nc2cnn(CCC(F)(F)F)c2)nc1NCc1cc(F)cc(F)c1 [Example I-463] | 1 to 10 µM | 1 to 10 µM | –
COc1cccc(CNc2nc(Nc3cnn(CC(=O)N(C)C)c3)ncc2Cl)c1 [Example I-244] | 1 to 10 µM | 0.1 to 1 µM | –
C[C@H](CO)NC(=O)Cn1cc(Nc2nccc(NCc3c(F)cccc3Cl)n2)cn1 [Example I-106] | 1 to 10 µM | ≤ 0.01 µM | –
CS(=O)(=O)c1ccccc1CNc1nc(Nc2cnn(CC(N)=O)c2)ncc1F [Example I-436] | 1 to 10 µM | 0.1 to 1 µM | –
O=C(Cn1cc(Nc2nccc(NCc3c(F)cccc3Cl)n2)cn1)NCCF [Example I-140] | 1 to 10 µM | 0.01 to 0.1 µM | –
CNC(=O)Cn1cc(Nc2ncc(F)c(NCc3c(F)cccc3F)n2)cn1 [Example I-381] | 1 to 10 µM | 0.01 to 0.1 µM | –
N#CCOc1cccc(CNc2nc(Nc3cnn(CC(=O)N4CCOCC4)c3)ncc2Cl)c1 [Example I-366] | 1 to 10 µM | 0.01 to 0.1 µM | –
Cn1cc(Nc2nccc(NCc3c(F)ccc(C#N)c3F)n2)cn1 [Example I-135] | 1 to 10 µM | 0.01 to 0.1 µM | –
CN(C)C(=O)Cn1cc(Nc2ncc(Cl)c(NCc3cccc(C(N)=O)c3)n2)cn1 [Example I-390] | 1 to 10 µM | 0.1 to 1 µM | –
CC(C)NC(=O)Cn1cc(Nc2nccc(NCc3c(Cl)cccc3Cl)n2)cn1 [Example I-76] | > 10 µM | 0.01 to 0.1 µM | –
Fc1cc(F)c(CNc2nc(Nc3cnn(CC(F)F)c3)ncc2F)c(F)c1 [Example I-464] | > 10 µM | 0.1 to 1 µM | –
COc1ccc(F)c(CNc2ccnc(Nc3cnn(CC(=O)NC(C)C)c3)n2)c1F [Example I-65] | 1 to 10 µM | 0.01 to 0.1 µM | < 0.1 µM
CC(C)NC(=O)Cn1cc(Nc2nccc(NCc3c(F)cncc3F)n2)cn1 [Example I-145] | > 10 µM | ≤ 0.01 µM | –
COC[C@H](C)NC(=O)Cn1cc(Nc2ncc(F)c(NCc3c(F)cc(F)cc3F)n2)cn1 [Example I-71] | > 10 µM | 0.01 to 0.1 µM | –
Cc1cnc(Nc2cnn(C)c2)nc1NCc1cccc(CNS(C)(=O)=O)c1 [Example I-402] | 1 to 10 µM | 0.1 to 1 µM | –

More lines, now with the values ahead:

IC50 (JAK2) | IC50 (TYK2; [1]) | IC50 (TYK2; read-out: TYK2 IC50) | SMILES
1 to 10 µM | 0.01 to 0.1 µM | – | CNC(=O)Cn1cc(Nc2ncc(F)c(NCc3c(F)ccc(OC)c3F)n2)cn1 [Example I-12]
1 to 10 µM | 0.01 to 0.1 µM | – | CC(C)NC(=O)Cn1cc(Nc2ncc(Cl)c(NCc3cccc(OC(F)F)c3)n2)cn1 [Example I-391]
1 to 10 µM | 0.01 to 0.1 µM | – | CNC(=O)Cn1cc(Nc2ncc(Cl)c(NCc3c(F)ccc(C)c3F)n2)cn1 [Example I-284]
1 to 10 µM | ≤ 0.01 µM | – | C[C@@H](CO)NC(=O)Cn1cc(Nc2nccc(NCc3c(F)cc(F)cc3Cl)n2)cn1 [Example I-132]
0.1 to 1 µM | 0.1 to 1 µM | – | Fc1cc(F)cc(CNc2nc(Nc3cnn(CC(F)F)c3)ncc2Cl)c1 [Example I-470]
0.1 to 1 µM | 0.1 to 1 µM | – | OCCn1cc(Nc2ncc(Cl)c(NCc3cccc(C(F)F)c3)n2)cn1 [Example I-293]
1 to 10 µM | ≤ 0.01 µM | – | O=C(Cn1cc(Nc2nccc(NCc3c(F)cccc3Cl)n2)cn1)NC1CC1 [Example I-139]
1 to 10 µM | 0.01 to 0.1 µM | – | Cc1cnc(Nc2cnn(CCO)c2)nc1NCc1ccc(S(N)(=O)=O)cc1 [Example I-8]
1 to 10 µM | 0.01 to 0.1 µM | – | CC(C)(C)NC(=O)Cn1cc(Nc2ncc(F)c(NCc3c(F)cc(F)cc3F)n2)cn1 [Example I-429]
1 to 10 µM | 0.01 to 0.1 µM | – | Cn1cc(Nc2ncc(F)c(NCc3cccc(C#N)c3)n2)cn1 [Example I-183]
1 to 10 µM | 0.01 to 0.1 µM | – | Cn1cc(Nc2nccc(NCc3c(F)cncc3F)n2)cn1 [Example I-148]
1 to 10 µM | 0.01 to 0.1 µM | – | COc1cc(F)c(CNc2nc(Nc3cnn(C)c3)ncc2C)c(F)c1 [Example I-314]
1 to 10 µM | 0.1 to 1 µM | – | CNC(=O)Cn1cc(Nc2ncc(Cl)c(NCc3cccc(OC)c3)n2)cn1 [Example I-243]
0.1 to 1 µM | 0.01 to 0.1 µM | – | N#C[C@@H]1CCN(C(=O)Cn2cc(Nc3ncc(Cl)c(NCc4ccccc4)n3)cn2)C1 [Example I-271]
1 to 10 µM | 0.01 to 0.1 µM | – | O=C(Cn1cc(Nc2nccc(NCc3c(F)cc(F)cc3F)n2)cn1)N[C@H]1CCOC1 [Example I-138]
0.1 to 1 µM | 0.01 to 0.1 µM | – | COc1ccc(F)c(CNc2nc(Nc3cnn(CCO)c3)ncc2Cl)c1F [Example I-320]
0.1 to 1 µM | 0.01 to 0.1 µM | – | NC(=O)Cn1cc(Nc2ncc(Cl)c(NCc3c(Cl)cccc3Cl)n2)cn1 [Example I-324]
0.1 to 1 µM | 0.01 to 0.1 µM | – | O=C(Cn1cc(Nc2ncc(Cl)c(NCc3cccc(F)c3F)n2)cn1)N1CCOCC1 [Example I-178]
0.1 to 1 µM | 0.1 to 1 µM | – | Cn1cc(Nc2ncc(Cl)c(NCc3cccnc3F)n2)cn1 [Example I-406]
0.1 to 1 µM | 0.1 to 1 µM | – | Cn1cc(Nc2ncc(Cl)c(NCc3ccccc3F)n2)cn1 [Example I-173]
0.1 to 1 µM | 0.01 to 0.1 µM | – | COc1ccc(Cl)c(CNc2ccnc(Nc3cnn(C)c3)n2)c1F [Example I-61]
0.1 to 1 µM | 0.01 to 0.1 µM | – | OCCn1cc(Nc2ncc(Cl)c(NCc3cc(Br)ccc3F)n2)cn1 [Example I-164]
0.1 to 1 µM | 0.01 to 0.1 µM | – | COc1ccc(Cl)c(CNc2nc(Nc3cnn(C)c3)ncc2F)c1F [Example I-85]
0.1 to 1 µM | 0.01 to 0.1 µM | – | CS(=O)(=O)c1ccc(F)c(CNc2nc(Nc3cn[nH]c3)ncc2Cl)c1 [Example I-98]
0.1 to 1 µM | 0.01 to 0.1 µM | – | COc1c(F)cc(F)cc1CNc1nc(Nc2cnn(CC(=O)NC3CC3)c2)ncc1C [Example I-345]
0.1 to 1 µM | 0.1 to 1 µM | – | COc1c(F)cccc1CNc1nc(Nc2cnn(CC(N)=O)c2)ncc1Cl [Example I-404]
0.1 to 1 µM | 0.01 to 0.1 µM | – | OCCn1cc(Nc2ncc(Cl)c(NCc3ccccc3)n2)cn1 [Example I-192]
0.1 to 1 µM | ≤ 0.01 µM | – | OCCn1cc(Nc2ncc(F)c(NCc3c(F)ccc(F)c3F)n2)cn1 [Example I-202]
0.1 to 1 µM | 0.1 to 1 µM | – | CN(C)S(=O)(=O)c1ccccc1CNc1nc(Nc2cnn(C)c2)ncc1Cl [Example I-474]
0.1 to 1 µM | ≤ 0.01 µM | – | Cc1cnc(Nc2cnn(CC(=O)N3CCOCC3)c2)nc1NCc1c(F)cc(S(N)(=O)=O)cc1F [Example I-378]
